# Experiment: Phase 1 single-ascending dose (Part 1): safety and tolerability in healthy adults
# Type: in vivo, human
# Description: This ongoing trial is a Phase 1 randomized, double-blind, placebo-controlled study in male and female healthy adult volunteers aged 18-55 years. All volunteers provided written, informed consent.
# All volunteers were followed up for 4 weeks and safety and tolerability were continuously assessed throughout the study. All adverse events (AEs) were recorded from the time of consent to the completion visit and were graded using the DAIDS toxicity grading scale. Volunteers also underwent physical examinations, electrocardiograms, vital sign checks and clinical laboratory parameters (chemistry, haematology, urinalysis).
smiles,measurement,setting,value
CCCCOc1nc(N)c2[nH]cc(Cc3ccc(CN4CCCC4)cc3)c2n1 [Compound 4],treatment-related AE: Hypertension,single dose 0.2 mg fasted,0 n (%)
same,treatment-related AE: Myalgia,single dose 0.2 mg fasted,0 n (%)
same,treatment-related AE: Nervous system disorders,single dose 0.2 mg fasted,0 n (%)
same,treatment-related AE: Oropharyngeal pain,single dose 0.2 mg fasted,0 n (%)
same,treatment-related AE: Pyrexia,single dose 0.2 mg fasted,0 n (%)
same,"treatment-related AE: Respiratory, thoracic and mediastinal disorders",single dose 0.2 mg fasted,0 n (%)
same,treatment-related AE: Vascular disorder,single dose 0.2 mg fasted,0 n (%)
same,vital signs: Respiratory rate (brpm) Grade 1,single dose 0.2 mg fasted,3 (50.0%) n (%)
same,vital signs: Respiratory rate (brpm) Grade 2,single dose 0.2 mg fasted,0 n (%)
same,vital signs: SaO2 (%) 90% to <95%,single dose 0.2 mg fasted,1 (16.7%) n (%)
same,vital signs: SaO2 (%) 95% to <98%,single dose 0.2 mg fasted,4 (66.7%) n (%)
same,vital signs: Standing DBP (mmHg) Grade 1,single dose 0.2 mg fasted,2 (33.3%) n (%)
same,vital signs: Standing DBP (mmHg) Grade 2,single dose 0.2 mg fasted,0 n (%)
same,vital signs: Standing DBP (mmHg) Grade 3,single dose 0.2 mg fasted,0 n (%)
same,vital signs: Standing DBP (mmHg) Low,single dose 0.2 mg fasted,0 n (%)
same,vital signs: Standing SBP (mmHg) Grade 1,single dose 0.2 mg fasted,3 (50.0%) n (%)
same,vital signs: Standing SBP (mmHg) Low,single dose 0.2 mg fasted,0 n (%)
same,vital signs: Standing pulse (bpm) High,single dose 0.2 mg fasted,3 (50.0%) n (%)
same,vital signs: Standing pulse (bpm) Low,single dose 0.2 mg fasted,0 n (%)
same,vital signs: Supine DBP (mmHg) Grade 1,single dose 0.2 mg fasted,0 n (%)
same,vital signs: Supine DBP (mmHg) Low,single dose 0.2 mg fasted,0 n (%)
same,vital signs: Supine SBP (mmHg) Grade 1,single dose 0.2 mg fasted,0 n (%)
same,vital signs: Supine SBP (mmHg) Grade 2,single dose 0.2 mg fasted,0 n (%)
same,vital signs: Supine SBP (mmHg) Low,single dose 0.2 mg fasted,1 (16.7%) n (%)
same,vital signs: Supine pulse (bpm) Low,single dose 0.2 mg fasted,2 (33.3%) n (%)
same,↑ AST Grade 3 (laboratory abnormality),single dose 0.2 mg fasted,0 n (%)
same,↑ Amylase Grade 2 (laboratory abnormality),single dose 0.2 mg fasted,1 (17) n (%)
same,↑ Cholesterol Grade 2 (laboratory abnormality),single dose 0.2 mg fasted,1 (17) n (%)
same,↑ Creatine kinase Grade 2 (laboratory abnormality),single dose 0.2 mg fasted,0 n (%)
same,↑ Creatine kinase Grade 4 (laboratory abnormality),single dose 0.2 mg fasted,0 n (%)
same,↑ Glucose Grade 2 (laboratory abnormality),single dose 0.2 mg fasted,0 n (%)
same,↑ LDL cholesterol Grade 2 (laboratory abnormality),single dose 0.2 mg fasted,1 (17) n (%)
same,↑ LDL cholesterol Grade 3 (laboratory abnormality),single dose 0.2 mg fasted,0 n (%)
same,↑ Lipase Grade 2 (laboratory abnormality),single dose 0.2 mg fasted,0 n (%)
same,↑ Pancreatic amylase Grade 2 (laboratory abnormality),single dose 0.2 mg fasted,0 n (%)
same,↑ Potassium Grade 2 (laboratory abnormality),single dose 0.2 mg fasted,0 n (%)
same,↑ Sodium Grade 2 (laboratory abnormality),single dose 0.2 mg fasted,0 n (%)
same,↑ Triglycerides Grade 2 (laboratory abnormality),single dose 0.2 mg fasted,2 (33) n (%)
same,↑ Triglycerides Grade 3 (laboratory abnormality),single dose 0.2 mg fasted,0 n (%)
same,↓ Bicarbonate Grade 2 (laboratory abnormality),single dose 0.2 mg fasted,1 (17) n (%)
same,↓ GFR Grade 2 (laboratory abnormality),single dose 0.2 mg fasted,0 n (%)
same,↓ Lymphocytes Grade 2 (laboratory abnormality),single dose 0.2 mg fasted,0 n (%)
same,↓ Lymphocytes Grade 4 (laboratory abnormality),single dose 0.2 mg fasted,0 n (%)
same,↓ Neutrophils Grade 2 (laboratory abnormality),single dose 0.2 mg fasted,0 n (%)
same,↓ Phosphate Grade 2 (laboratory abnormality),single dose 0.2 mg fasted,0 n (%)
same,Any AE (treatment-emergent),single dose 0.6 mg fasted,3 (50) n (%)
same,Back pain Grade 1 (treatment-emergent AE),single dose 0.6 mg fasted,0 n (%)
same,Chills Grade 1 (treatment-emergent AE),single dose 0.6 mg fasted,0 n (%)
same,Contact dermatitis Grade 1 (treatment-emergent AE),single dose 0.6 mg fasted,0 n (%)
same,Dizziness Grade 1 (treatment-emergent AE),single dose 0.6 mg fasted,0 n (%)
same,ECG actual value: Heart rate (bpm) Low,single dose 0.6 mg fasted,0 n (%)
same,ECG actual value: QRS (ms) High,single dose 0.6 mg fasted,0 n (%)
same,ECG actual value: QTcB (ms) ]450; 480],single dose 0.6 mg fasted,0 n (%)
same,ECG actual value: QTcF (ms) ]450; 480],single dose 0.6 mg fasted,0 n (%)
same,ECG change from reference: QTcB (ms) [30; 60],single dose 0.6 mg fasted,3 (50.0%) n (%)
same,ECG change from reference: QTcF (ms) [30; 60],single dose 0.6 mg fasted,0 n (%)
same,Headache Grade 1 (treatment-emergent AE),single dose 0.6 mg fasted,0 n (%)
same,Headache Grade 2 (treatment-emergent AE),single dose 0.6 mg fasted,0 n (%)
same,Hypertension Grade 1 (treatment-emergent AE),single dose 0.6 mg fasted,0 n (%)
same,Hypertension Grade 2 (treatment-emergent AE),single dose 0.6 mg fasted,0 n (%)
same,Myalgia Grade 1 (treatment-emergent AE),single dose 0.6 mg fasted,0 n (%)
same,Oropharyngeal pain Grade 1 (treatment-emergent AE),single dose 0.6 mg fasted,1 (17) n (%)
same,Pyrexia Grade 1 (treatment-emergent AE),single dose 0.6 mg fasted,0 n (%)
same,Pyrexia Grade 2 (treatment-emergent AE),single dose 0.6 mg fasted,0 n (%)
same,URTI Grade 1 (treatment-emergent AE),single dose 0.6 mg fasted,0 n (%)
same,"lab toxicity: Amylase (U/L), upwards, Grade 1",single dose 0.6 mg fasted,0 n (%)
same,"lab toxicity: Amylase (U/L), upwards, Grade 2",single dose 0.6 mg fasted,0 n (%)
same,"lab toxicity: Cholesterol (mmol/L), upwards, Grade 1",single dose 0.6 mg fasted,2 (33.3%) n (%)
